{
  "source": "patent US7741288B2",
  "about": "“Methods of screening of PP1-interacting polypeptides or proteins, peptides inhibiting PP1c binding to Bcl-2 proteins, Bcl-xL and Bcl-w, and uses thereof” (Institut Pasteur, priority 2002, dated 2010)",
  "key": {"[1]": {"test_system": "type 1 and type 2A activities", "assay": "In vitro phosphatase assay in supernatants of Bad and Bcl-w immunoprecipitates with okadaic acid", "format": "biochemical, murine", "details": "10^−9 M OA", "method": "B) Different concentrations of OA were added to Bad or Bcl-w immunoprecipitates from IL-4 stimulated cells. Phosphatase activity was estimated using ^32P phosphorylase a as substrate. The reaction was as in A. Similar results were obtained in three independent experiments. Phosphatase activity is represented as the percentage of maximal activity in untreated supernatants.\n(§1) IL-4-stimulated cells (1×10^7) were lysed in lysis buffer, supernatants were immunoprecipitated with the corresponding antibody, followed by incubation with Protein A Sepharose. Immunoprecipitates were washed with phosphatase buffer (50 mM Tris HCl, pH 7.5, 0.1% 2-ME, 0.1 mM EDTA and 1 mg/ml BSA) and mixed with [^32P] phosphorylase a, diluted in phosphatase buffer supplemented with caffeine. The reaction was incubated (40 min at 30° C.), stopped with 200 μl 20% TCA and centrifuged. A total of 185 μl of the supernatant were used to estimate the generation of free phosphate liberated from [^32P] phosphorylase a.\nThe enzymatic activity in the immunoprecipitates was measured using ^32P-labeled phosphorylase a as substrate. It is interesting to notice that phosphatase activity detected in Bcl-xL and Bcl-w immunoprecipitates nearly corresponds to the phosphatase activity observed in Bad immunoprecipitates. […]"}, "Bad": {"test_system": "Bad", "assay": "Serine 136 phosphorylation of Bad in OA-treated cells, western blot", "format": "cell-based, murine", "method": "A) Cells were treated with or without 1 μM OA in the presence or the absence of IL-4. […] Protein bands were detected using ECL.\nCells (1×10^7) were IL-4-stimulated or -deprived and lysed for 20 min at 4° C. in lysis buffer (50 mM Tris HCl pH 8, 1% NP40, 137 mM NaCl, 1 mM MgCl2, 1 mM CaCl2, 10% glycerol and protease inhibitors cocktail). Digitonin or detergent free buffers were also used for immunoprecipitation. For phosphorylation analysis, the buffer was also supplemented with phosphatase inhibitors cocktail. Lysates were immunoprecipitated with the Appropriate antibody and Protein A Sepharose was added. Alliteratively, cells were lysed in Laemmli sample buffer and protein extracts separated by SDS-PAGE, transferred to nitrocellulose, blocked and incubated with primary antibody. Membrane was washed and incubated. with PO-conjugated secondary antibody. Proteins were developed using the ECL.\nAs IL-4-deprivation correlates with Bad dephosphorylation and apoptosis, it was hypothesized that inhibition of phosphatase activity by okadaic acid (OA) treatment may prevent Bad dephosphorylation and apoptosis. Treatment of the cells with 1 μM OA in the absence of IL-4 prevented Bad dephosphorylation at serine 136 (FIG. 9A). […] The inhibition of Bcl-xL and Bcl-w expression upon antisense oligonucleotide treatment was estimated by Western blot."}, "TS1αβ cells": {"test_system": "TS1αβ cells", "assay": "Apoptosis by propidium iodide staining and flow cytometry", "format": "cell-based, murine", "details": "IL-4-deprived cells, 1 μM OA for 6 h"}, "PP1c [2]": {"target": "T1, PP1c (Mus musculus, UniProt P62137)", "assay": "In vitro phosphatase assay in Bad or Bcl-w immunoprecipitates with okadaic acid, 32P phosphorylase a as substrate", "format": "biochemical, murine", "design": "enzymatic activity was estimated in Bad or Bcl-w immunoprecipitates from IL-4-stimulated cells; endogenous in cells; host or cells: TS1αβ murine T cell line, IL-4-stimulated; anti-Bad or anti-Bcl-w immunoprecipitates on Protein A Sepharose", "method": "B) Different concentrations of OA were added to Bad or Bcl-w immunoprecipitates from IL-4 stimulated cells. Phosphatase activity was estimated using ^32P phosphorylase a as substrate. […] Phosphatase activity is represented as the percentage of maximal activity in untreated supernatants.\nas §1\nThe enzymatic activity in the immunoprecipitates was measured using ^32P-labeled phosphorylase a as substrate. […] To confirm that this phosphatase activity was due to PP1c, enzymatic activity was estimated in Bad or Bcl-w immunoprecipitates from IL-4-stimulated cells in the presence of different okadaic acid (OA) concentrations (FIG. 5B). […] The effect of OA on phosphatase activity was also estimated in supernatants of Bad and Bcl-w immunoprecipitates."}, "PP1c [3]": {"target": "T2, PP1c (Homo sapiens, UniProt P62136)", "T2 construct": "purchased Calbiochem", "T2 sequence (P62136 whole entry)": "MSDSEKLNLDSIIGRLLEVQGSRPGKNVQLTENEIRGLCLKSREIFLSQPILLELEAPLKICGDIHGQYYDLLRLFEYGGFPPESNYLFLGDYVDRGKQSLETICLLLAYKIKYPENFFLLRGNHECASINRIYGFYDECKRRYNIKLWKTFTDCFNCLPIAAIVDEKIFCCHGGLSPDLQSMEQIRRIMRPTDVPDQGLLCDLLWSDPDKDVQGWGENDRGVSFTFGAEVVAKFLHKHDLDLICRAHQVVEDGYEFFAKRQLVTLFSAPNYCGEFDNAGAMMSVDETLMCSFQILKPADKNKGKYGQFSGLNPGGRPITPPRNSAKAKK", "assay": "PP1c binding assay on cellulose-bound Bcl-xL or Bcl-w peptides", "details": "membrane-immobilized peptides, anti-PP1c antibody, ECL", "text": "Spots were detected using ECL system. […] Mutated amino acids into the motif are in bold and underlined. Similar results were obtained in two independent experiments. Peptide 1 corresponds to the PP1 binding motif of Bcl-xL and Bcl-w. Peptide 2 corresponds to the mutated PP1 binding site were V and F residues were mutated to A. FIG. 5b contains the following sequences: NWGRIVAFFSFG (SEQ ID NO: 6), NWGRIAAAFSFG (SEQ ID NO: 51): GDEFELRYRRAF (SEQ ID NO: 7). GDEGELGYGRAF (SEQ ID NO: 59): GDESELSYSRAF (SEQ ID NO: 54). GDEFELGYGRAF (SEQ ID NO: 55): GDEFELSYSRAF (SEQ ID NO: 56). GDEGELRYRRAF (SEQ ID NO: 57): GDEGELRYRRAF (SEQ ID NO: 58): GDEGELGYRRAF (SEQ ID NO: 59). GDESELSYRRAF (SEQ ID NO: 60). PNWGRLVAFFVFG (SEQ ID NO: 61): PNWGRLAAAFVFG (SEQ ID NO: 62). GDEFETRFRRTFS (SEQ ID NO: 63): GDEFETGFGRTFS (SEQ ID NO: 64). GDEFETGFGRTFS (SEQ ID NO: 65), GDEFETRFGRTFS (SEQ ID NO: 66). GDEGETGFRRTFS (SEQ ID NO: 67). GDEGETRFRRTFS (SEQ ID NO: 68). FIG. 5a contains the following sequences FSRRYR (SEQ ID NO: 5). FTARGR (SEQ ID NO: 5). FELRYR (SEQ ID NO: 5). FETRFR (SEQ ID NO: 5).\nMembrane was blocked, incubated with purified PP1c and, after several washing steps, incubated with anti-PP1c antibody, followed by PO-conjugated secondary antibody. Spots were developed using the ECL system.\nIt has been described that R/K X V/I X F motif is shared by most of the PP1c targeting subunits (21, 23). […]"}, "PP1c [4]": {"target": "T1, PP1c", "assay": "Phosphatase activity in peptide-treated Bad immunoprecipitates", "format": "biochemical, murine", "design": "Lysates from IL-4-stimulated cells were immunoprecipitated with anti-Bad antibody and Protein A Sepharose was added; endogenous in cells; host or cells: TS1αβ murine T cell line, IL-4-stimulated; anti-Bad immunoprecipitates on Protein A Sepharose", "details": "1.5 mM peptide, 30 min, room temperature", "method": "B) Cytoplasmic lysates from IL-4-stimulated cells were immunoprecipitated with anti-Bad antibody. Immunoprecipitates were treated with 1.5 mM of R, R*, F or R+F peptides for 30 min at room temperature. Immunoprecipitates were washed and phosphatase activity estimated using ^32P phosphorylase a as substrate. Similar results were obtained in two independent experiments.\nC) Cytoplasmic lysates from IL-4-stimulated cells were immunoprecipitated with anti-Bad antibody and then treated with 1.5 mM of R+F peptide or 3 mM of R or F peptide (30 min, room temperature). Immunoprecipitates were washed and phosphatase activity estimated as in B.\nIL-4-stimulated cells (1×10^7) were lysed in lysis buffer, supernatants were immunoprecipitated with the corresponding antibody, followed by incubation with Protein A Sepharose. […]\n(§2) Lysates from IL-4-stimulated cells were immunoprecipitated with anti-Bad antibody and the interaction Bcl-xL/PP1c and Bcl-w/PP1c was competed using R* (NWGRIAAAFSF) (SEQ ID NO: 8), R (NWGRIVAFFSF) (SEQ ID NO: 6) or F (GDEFELRYRRAF) (SEQ ID NO: 7) peptides (FIG. 8A). Bcl-xL, Bcl-w and PP1c were detected in control anti-Bad immunoprecipitates, as well as in anti-Bad immunoprecipitates treated with R* peptide. […] Phosphatase activity was detected in control or R* peptide-treated immunoprecipitates (FIG. 8B), decreasing upon competition of the interaction with F or R peptides. […]"}, "[5]": {"target": "T3, Bcl-xL/PP1c/Bad and Bcl-w/PP1c/Bad (Mus musculus, UniProt P62137)", "T3 construct": "Lysates from IL-4-stimulated cells were immunoprecipitated with anti-Bad antibody and Protein A Sepharose was added; endogenous in cells; host or cells: TS1αβ murine T cell line, IL-4-stimulated; anti-Bad immunoprecipitates on Protein A Sepharose", "T3 sequence (P62137 2-330 limits assumed)": "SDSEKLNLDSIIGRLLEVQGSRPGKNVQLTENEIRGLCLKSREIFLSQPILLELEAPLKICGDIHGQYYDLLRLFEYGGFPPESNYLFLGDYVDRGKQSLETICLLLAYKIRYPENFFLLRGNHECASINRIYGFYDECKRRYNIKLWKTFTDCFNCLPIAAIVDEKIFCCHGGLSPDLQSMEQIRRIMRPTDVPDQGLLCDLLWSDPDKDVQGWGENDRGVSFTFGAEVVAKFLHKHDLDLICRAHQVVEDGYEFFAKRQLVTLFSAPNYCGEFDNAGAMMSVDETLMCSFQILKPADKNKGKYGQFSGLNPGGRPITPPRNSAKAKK", "assay": "Protein-protein interaction competition in anti-Bad immunoprecipitates, western blot", "format": "binding, murine", "details": "1.5 mM peptide, 30 min, room temperature; anti-Bad immunoprecipitates of IL-4-stimulated cells", "method": "A) Cytoplasmic extracts from control IL-4-stimulated cells were immunoprecipitated with anti-Bad antibody. The interaction Bcl-xL/PP1c/Bad and Bcl-w/PP1c/Bad was competed with 1.5 mM of R, R*, F or R+F peptides for 30 min at room temperature. Immunoprecipitates were washed, transferred to nitrocellulose and blotted with anti-Bad, anti-PP1c, anti-Bcl-xL and anti-Bcl-w. Similar results were obtained in two independent experiments. For sequence of peptides, see Materials and Methods or FIGS. 5A and 5B.\nCells (1×10^7) were IL-4-stimulated or -deprived and lysed for 20 min at 4° C. in lysis buffer (50 mM Tris HCl pH 8, 1% NP40, 137 mM NaCl, 1 mM MgCl2, 1 mM CaCl2, 10% glycerol and protease inhibitors cocktail). Digitonin or detergent free buffers were also used for immunoprecipitation. […]\nas §2"}},
  "data": [
    {"compound": "C=C1[C@@H](O)[C@@H]2O[C@]3(CC[C@H](/C=C/[C@@H](C)[C@@H]4CC(C)=C[C@@]5(O[C@H](C[C@@](C)(O)C(=O)O)CC[C@H]5O)O4)O3)CC[C@H]2O[C@@H]1[C@@H](O)C[C@H](C)[C@H]1O[C@@]2(CCCCO2)CC[C@H]1C", "note": "[OA, okadaic acid]", "values": [
      {"measurement": "inhibition of phosphatase activity in the supernatant", "setting": "[1]", "result": "~50", "unit": "%"},
      {"measurement": "Bad dephosphorylation at serine 136", "setting": "Bad; 1 μM OA in the absence of IL-4", "result": "prevented"},
      {"measurement": "total Bad expression", "setting": "Bad; after OA treatment (1 μM)", "result": "No changes"},
      {"measurement": "fraction of apoptotic cells compared with untreated cells", "setting": "TS1αβ cells", "result": "significant reduction"},
      {"measurement": "phosphatase activity", "setting": "PP1c [2]; 10^−6 M OA, Bcl-w or Bad immunoprecipitates", "result": "strongly reduced"},
      {"measurement": "inhibition at 0.01 µM", "setting": "PP1c [2]; 10^−8 M OA, Bcl-w or Bad immunoprecipitates", "result": "~50", "unit": "%"},
      {"measurement": "effect on Bad- or Bcl-w-associated phosphatase activity in vitro", "setting": "PP1c [2]; 10^−9 M OA, Bad or Bcl-w immunoprecipitates from IL-4-stimulated cells", "result": "no effect"}
    ]},
    {"compound": "FELRYR", "values": [
      {"measurement": "binding to purified PP1c", "setting": "PP1c [3]", "result": "interacts with PP1c"}
    ]},
    {"compound": "FETRFR", "values": [
      {"measurement": "binding to purified PP1c", "setting": "PP1c [3]", "result": "interacts with PP1c"}
    ]},
    {"compound": "GDEFELRYRRAF [F peptide]", "values": [
      {"measurement": "phosphatase activity in peptide-treated Bad immunoprecipitates", "setting": "PP1c [4]", "result": "decreasing"},
      {"measurement": "amount of Bcl-xL, Bcl-w and PP1c associated to Bad after competition", "setting": "[5]", "result": "decreases"}
    ]}
  ]
}
